Assay results from ChEMBL document CHEMBL5543164 (J Med Chem, 2024).
pIC50: −log10 of the molar value. Each block holds one molecule with its values, some of them ahead of it.

How the values were obtained:
CNE-2 = experiment: Antiproliferative activity against human CNE-2 cells assessed as inhibition of cell growth incubated for 48 hrs by CCK-8 assay; type: functional, cell-based; settings: CNE-2, 48 h
HepG2 = experiment: Antiproliferative activity against human HepG2 cells assessed as inhibition of cell growth incubated for 48 hrs by CCK-8 assay; type: functional, cell-based; settings: HepG2, 48 h
MDA-MB-231 = experiment: Antiproliferative activity against human MDA-MB-231 cells assessed as inhibition of cell growth incubated for 48 hrs by CCK-8 assay; type: functional, cell-based; settings: MDA-MB-231, 48 h
HeLa = experiment: Antiproliferative activity against human HeLa cells assessed as inhibition of cell growth incubated for 48 hrs by CCK-8 assay; type: functional, cell-based
HCT-116 = experiment: Antiproliferative activity against human HCT-116 cells assessed as inhibition of cell growth incubated for 48 hrs by CCK-8 assay; type: functional, cell-based; settings: HCT-116, 48 h
MCF7 [1] = experiment: Antiproliferative activity against human MCF7 cells assessed as inhibition of cell growth incubated for 48 hrs by CCK-8 assay; type: functional, cell-based; settings: MCF7, 48 h
[2] = biological target: Serine/threonine-protein kinase mTOR (Homo sapiens, UniProt P42345)
MCF7 [3] = settings: dose 20 mg/kg; route iv; time 19 day
MCF7 [4] = experiment: Antitumor activity against human MCF7 cells xenografted in BALB/c mouse assessed as tumor size at 20 mg/kg, iv measured every 2 days for 19 days (reference value: 1178 +/- 246mm3); type: functional; settings: time 19 day
in vivo [5] = settings: BALB/c, mouse, iv, 5 mg/kg
in vivo [6] = settings: BALB/c, mouse, iv, 5 mg/kg; remark: listed apart in the source
MCF7 [7] = experiment: Induction of apoptosis in human MCF7 cells assessed as necrotic cells at 5 uM incubated for 24 hrs Annexin FITC/PI staining based flow cytometry analysis (reference value: 1.33%); type: functional
in vivo [8] = settings: BALB/c, mouse, iv, 5 mg/kg; remark: listed apart in the source
in vivo [9] = settings: BALB/c, mouse, iv, 5 mg/kg; remark: listed apart in the source
in vivo [10] = settings: BALB/c, mouse, iv, 5 mg/kg; remark: listed apart in the source
MCF7 [11] = experiment: Induction of apoptosis in human MCF7 cells assessed as late apoptotic cells at 10 uM incubated for 24 hrs Annexin FITC/PI staining based flow cytometry analysis (reference value: 5.84%); type: functional
MCF7 [12] = experiment: Induction of apoptosis in human MCF7 cells assessed as late apoptotic cells at 2.5 uM incubated for 24 hrs Annexin FITC/PI staining based flow cytometry analysis (reference value: 5.84%); type: functional
MCF7 [13] = experiment: cells; settings: Homo sapiens, MCF7, 24 h, read-out: Activity
MCF7 [14] = experiment: cells; settings: Homo sapiens, MCF7, 24 h, read-out: Activity; remark: listed apart in the source
in vivo [15] = settings: BALB/c, mouse, iv
MCF7 [16] = experiment: Induction of apoptosis in human MCF7 cells assessed as necrotic cells at 10 uM incubated for 24 hrs Annexin FITC/PI staining based flow cytometry analysis (reference value: 1.33%); type: functional
in vivo [17] = settings: BALB/c, mouse, iv, 5 mg/kg; remark: listed apart in the source
in vivo [18] = settings: BALB/c, mouse, iv, 5 mg/kg; remark: listed apart in the source
MCF7 [19] = experiment: Induction of apoptosis in human MCF7 cells assessed as early apoptotic cells at 5 uM incubated for 24 hrs Annexin FITC/PI staining based flow cytometry analysis (reference value: 0.87%); type: functional
MCF7 [20] = experiment: Induction of apoptosis in human MCF7 cells assessed as early apoptotic cells at 10 uM incubated for 24 hrs Annexin FITC/PI staining based flow cytometry analysis (reference value: 0.87%); type: functional
MCF7 [21] = experiment: Antitumor activity against human MCF7 cells xenografted in BALB/c mouse assessed as tumor growth inhibition at 20 mg/kg, iv measured every 2 days for 19 days; type: functional; settings: MCF7, 456 h, time 19 day, read-out: TGI
in vivo [22] = settings: BALB/c, mouse, iv, 5 mg/kg; remark: listed apart in the source
MCF7 [23] = experiment: Induction of apoptosis in human MCF7 cells assessed as necrotic cells at 2.5 uM incubated for 24 hrs Annexin FITC/PI staining based flow cytometry analysis (reference value: 1.33%); type: functional
MCF7 [24] = settings: dose 20 mg/kg; route iv; time 19 day; remark: listed apart in the source
MCF7 [25] = experiment: cells; settings: Homo sapiens, MCF7, 24 h, read-out: Activity; remark: listed apart in the source
MCF7 [26] = experiment: Induction of apoptosis in human MCF7 cells assessed as late apoptotic cells at 5 uM incubated for 24 hrs Annexin FITC/PI staining based flow cytometry analysis (reference value: 5.84%); type: functional
MCF7 [27] = experiment: Antitumor activity against human MCF7 cells xenografted in BALB/c mouse assessed as tumor size at 20 mg/kg, iv administered as lipodisc encapsulated form measured every 2 days for 19 days (reference value: 1178 +/- 246mm3); type: functional; settings: time 19 day
in vivo [28] = settings: BALB/c, mouse, iv; remark: listed apart in the source
MCF7 [29] = experiment: Antitumor activity against human MCF7 cells xenografted in BALB/c mouse assessed as tumor growth inhibition at 20 mg/kg, iv administered as lipodisc encapsulated form measured every 2 days for 19 days; type: functional; settings: MCF7, 456 h, time 19 day, read-out: TGI
MCF7 [30] = experiment: Induction of apoptosis in human MCF7 cells assessed as early apoptotic cells at 2.5 uM incubated for 24 hrs Annexin FITC/PI staining based flow cytometry analysis (reference value: 0.87%); type: functional
[31] = biological target: Phosphatidylinositol 4,5-bisphosphate 3-kinase catalytic subunit gamma isoform (Homo sapiens, UniProt P48736); experiment: Inhibition of PI3Kgamma (unknown origin) by ADP-glo plus luminescence assay
[32] = biological target: T1, Phosphatidylinositol 4,5-bisphosphate 3-kinase catalytic subunit delta isoform (Homo sapiens, UniProt O00329)
T1 sequence (O00329 whole entry): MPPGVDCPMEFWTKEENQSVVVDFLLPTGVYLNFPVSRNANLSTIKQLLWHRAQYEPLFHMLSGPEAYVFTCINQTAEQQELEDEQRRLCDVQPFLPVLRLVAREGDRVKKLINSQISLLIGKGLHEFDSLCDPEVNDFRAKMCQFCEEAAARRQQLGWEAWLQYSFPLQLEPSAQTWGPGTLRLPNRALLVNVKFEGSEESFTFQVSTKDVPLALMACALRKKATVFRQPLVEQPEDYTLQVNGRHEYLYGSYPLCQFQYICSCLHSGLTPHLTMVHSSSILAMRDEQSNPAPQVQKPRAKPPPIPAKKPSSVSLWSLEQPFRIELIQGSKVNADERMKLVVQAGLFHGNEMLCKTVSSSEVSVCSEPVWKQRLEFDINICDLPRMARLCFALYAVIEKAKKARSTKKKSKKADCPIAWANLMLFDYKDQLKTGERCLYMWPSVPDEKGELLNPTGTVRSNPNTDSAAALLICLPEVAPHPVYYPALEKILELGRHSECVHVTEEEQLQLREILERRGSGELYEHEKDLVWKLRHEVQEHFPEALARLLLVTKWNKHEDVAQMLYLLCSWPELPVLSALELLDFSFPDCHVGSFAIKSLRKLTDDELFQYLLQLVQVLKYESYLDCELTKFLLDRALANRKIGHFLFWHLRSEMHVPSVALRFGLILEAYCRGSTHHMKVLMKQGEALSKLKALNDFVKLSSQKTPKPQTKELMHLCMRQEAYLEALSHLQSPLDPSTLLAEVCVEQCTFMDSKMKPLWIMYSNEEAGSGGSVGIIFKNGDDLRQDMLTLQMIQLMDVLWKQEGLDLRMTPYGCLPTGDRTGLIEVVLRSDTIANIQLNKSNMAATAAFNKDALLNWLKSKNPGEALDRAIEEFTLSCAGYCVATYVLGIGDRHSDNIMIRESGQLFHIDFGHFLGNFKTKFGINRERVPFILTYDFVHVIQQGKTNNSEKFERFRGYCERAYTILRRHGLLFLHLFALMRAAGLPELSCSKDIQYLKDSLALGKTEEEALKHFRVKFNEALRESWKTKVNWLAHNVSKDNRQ

[33] = biological target: Phosphatidylinositol 4,5-bisphosphate 3-kinase catalytic subunit beta isoform (Homo sapiens, UniProt P42338)
Cytochrome P450 2C19 = Cytochrome P450 2C19 (Homo sapiens, UniProt P33261); experiment: Inhibition of CYP2C19 (unknown origin); type: ADME
[34] = biological target: Voltage-gated inwardly rectifying potassium channel KCNH2 (Homo sapiens, UniProt Q12809); experiment: Inhibition of hERG; type: toxicity
Cytochrome P450 1A2 = biological target: T2, Cytochrome P450 1A2 (Homo sapiens, UniProt P05177); experiment: Inhibition of CYP1A2 (unknown origin); type: ADME
T2 sequence (P05177 whole entry): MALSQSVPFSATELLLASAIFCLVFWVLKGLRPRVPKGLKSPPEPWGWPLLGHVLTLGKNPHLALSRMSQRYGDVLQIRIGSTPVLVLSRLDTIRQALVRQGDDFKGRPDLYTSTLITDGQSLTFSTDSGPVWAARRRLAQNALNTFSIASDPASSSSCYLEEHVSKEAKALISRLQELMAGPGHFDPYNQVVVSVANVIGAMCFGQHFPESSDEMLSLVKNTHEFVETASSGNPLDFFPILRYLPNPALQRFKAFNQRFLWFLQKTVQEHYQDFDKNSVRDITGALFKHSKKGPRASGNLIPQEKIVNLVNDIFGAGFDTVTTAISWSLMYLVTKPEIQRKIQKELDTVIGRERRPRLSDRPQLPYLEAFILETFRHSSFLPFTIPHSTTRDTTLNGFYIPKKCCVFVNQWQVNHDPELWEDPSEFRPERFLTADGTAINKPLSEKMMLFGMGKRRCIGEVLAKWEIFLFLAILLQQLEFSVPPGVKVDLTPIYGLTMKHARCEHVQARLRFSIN

Cytochrome P450 2D6 = Cytochrome P450 2D6 (Homo sapiens, UniProt P10635); experiment: Inhibition of CYP2D6 (unknown origin); type: ADME
Cytochrome P450 2C9 = Cytochrome P450 2C9 (Homo sapiens, UniProt P11712); experiment: Inhibition of CYP2C9 (unknown origin); type: ADME
Cytochrome P450 3A4 = Cytochrome P450 3A4 (Homo sapiens, UniProt P08684); experiment: Inhibition of CYP3A4-M (unknown origin); type: ADME
Sequence of Cytochrome P450 3A4 (P08684 whole entry): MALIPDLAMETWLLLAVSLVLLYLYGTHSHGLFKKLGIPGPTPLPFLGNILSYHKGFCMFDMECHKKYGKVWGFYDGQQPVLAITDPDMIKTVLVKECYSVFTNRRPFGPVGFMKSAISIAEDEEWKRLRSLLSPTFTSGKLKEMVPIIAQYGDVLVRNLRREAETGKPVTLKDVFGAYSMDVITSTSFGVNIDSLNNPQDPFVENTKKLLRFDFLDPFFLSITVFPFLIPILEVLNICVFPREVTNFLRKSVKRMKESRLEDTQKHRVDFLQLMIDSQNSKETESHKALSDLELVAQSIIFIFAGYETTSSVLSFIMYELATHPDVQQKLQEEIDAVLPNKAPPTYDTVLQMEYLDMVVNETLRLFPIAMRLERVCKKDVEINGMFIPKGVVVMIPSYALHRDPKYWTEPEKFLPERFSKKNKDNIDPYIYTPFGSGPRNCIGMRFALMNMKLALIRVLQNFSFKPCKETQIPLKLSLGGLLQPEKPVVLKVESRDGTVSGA

Sequence of Phosphatidylinositol 4,5-bisphosphate 3-kinase catalytic subunit gamma isoform (P48736 whole entry, canonical isoform): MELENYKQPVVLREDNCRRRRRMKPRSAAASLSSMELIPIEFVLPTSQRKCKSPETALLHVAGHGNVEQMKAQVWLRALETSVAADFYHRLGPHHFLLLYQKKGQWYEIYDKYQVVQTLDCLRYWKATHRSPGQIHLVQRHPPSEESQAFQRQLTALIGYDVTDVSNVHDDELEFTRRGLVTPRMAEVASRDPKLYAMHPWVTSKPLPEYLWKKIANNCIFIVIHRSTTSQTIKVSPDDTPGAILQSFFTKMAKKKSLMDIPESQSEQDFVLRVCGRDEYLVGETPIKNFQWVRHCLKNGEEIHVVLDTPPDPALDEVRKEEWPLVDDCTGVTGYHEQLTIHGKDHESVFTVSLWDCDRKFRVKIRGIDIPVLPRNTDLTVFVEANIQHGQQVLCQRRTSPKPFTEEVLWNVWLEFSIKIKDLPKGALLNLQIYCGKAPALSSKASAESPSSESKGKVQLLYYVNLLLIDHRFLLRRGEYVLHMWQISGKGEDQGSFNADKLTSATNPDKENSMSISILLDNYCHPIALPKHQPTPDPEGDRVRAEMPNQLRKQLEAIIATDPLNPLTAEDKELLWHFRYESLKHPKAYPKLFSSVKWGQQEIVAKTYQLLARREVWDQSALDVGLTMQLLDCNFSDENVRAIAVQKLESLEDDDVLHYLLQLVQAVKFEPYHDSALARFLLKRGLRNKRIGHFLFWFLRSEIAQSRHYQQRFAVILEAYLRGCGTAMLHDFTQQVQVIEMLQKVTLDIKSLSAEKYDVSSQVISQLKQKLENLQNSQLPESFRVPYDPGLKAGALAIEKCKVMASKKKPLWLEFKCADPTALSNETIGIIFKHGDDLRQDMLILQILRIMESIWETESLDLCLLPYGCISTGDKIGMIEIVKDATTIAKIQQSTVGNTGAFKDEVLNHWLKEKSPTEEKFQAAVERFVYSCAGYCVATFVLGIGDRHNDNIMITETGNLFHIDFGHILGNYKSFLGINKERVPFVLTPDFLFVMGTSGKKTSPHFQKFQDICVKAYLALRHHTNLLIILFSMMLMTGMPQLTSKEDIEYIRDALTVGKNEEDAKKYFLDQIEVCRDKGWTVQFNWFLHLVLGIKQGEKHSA
Sequence of Phosphatidylinositol 4,5-bisphosphate 3-kinase catalytic subunit beta isoform (P42338 whole entry, canonical isoform): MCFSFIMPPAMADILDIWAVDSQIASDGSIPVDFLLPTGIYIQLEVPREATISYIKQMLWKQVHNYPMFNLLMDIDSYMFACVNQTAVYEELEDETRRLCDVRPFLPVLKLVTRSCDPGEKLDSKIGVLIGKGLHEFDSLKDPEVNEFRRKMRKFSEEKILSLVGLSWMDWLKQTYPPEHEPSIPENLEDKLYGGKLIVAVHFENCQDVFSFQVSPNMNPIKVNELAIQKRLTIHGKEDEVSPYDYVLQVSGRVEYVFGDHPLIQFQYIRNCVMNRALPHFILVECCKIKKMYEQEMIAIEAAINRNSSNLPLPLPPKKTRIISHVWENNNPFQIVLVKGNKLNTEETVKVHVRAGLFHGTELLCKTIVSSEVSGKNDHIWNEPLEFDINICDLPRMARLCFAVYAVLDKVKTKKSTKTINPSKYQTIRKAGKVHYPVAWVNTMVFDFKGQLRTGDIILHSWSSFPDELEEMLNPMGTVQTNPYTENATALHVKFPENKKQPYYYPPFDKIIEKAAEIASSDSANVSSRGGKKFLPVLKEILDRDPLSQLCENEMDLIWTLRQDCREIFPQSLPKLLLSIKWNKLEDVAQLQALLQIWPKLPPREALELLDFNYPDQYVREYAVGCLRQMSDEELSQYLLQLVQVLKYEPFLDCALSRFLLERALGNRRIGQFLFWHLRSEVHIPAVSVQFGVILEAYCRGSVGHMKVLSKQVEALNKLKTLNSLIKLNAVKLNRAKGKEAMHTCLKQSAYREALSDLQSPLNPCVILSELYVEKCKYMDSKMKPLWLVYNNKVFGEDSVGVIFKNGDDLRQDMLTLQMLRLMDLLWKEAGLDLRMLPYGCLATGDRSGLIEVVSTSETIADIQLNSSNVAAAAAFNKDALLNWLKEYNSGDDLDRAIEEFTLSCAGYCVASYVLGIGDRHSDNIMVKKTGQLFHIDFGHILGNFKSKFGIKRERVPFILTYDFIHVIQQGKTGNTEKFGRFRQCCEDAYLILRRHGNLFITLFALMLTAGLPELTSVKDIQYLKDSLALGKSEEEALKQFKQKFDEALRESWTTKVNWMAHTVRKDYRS
Sequence of Cytochrome P450 2C19 (P33261 whole entry): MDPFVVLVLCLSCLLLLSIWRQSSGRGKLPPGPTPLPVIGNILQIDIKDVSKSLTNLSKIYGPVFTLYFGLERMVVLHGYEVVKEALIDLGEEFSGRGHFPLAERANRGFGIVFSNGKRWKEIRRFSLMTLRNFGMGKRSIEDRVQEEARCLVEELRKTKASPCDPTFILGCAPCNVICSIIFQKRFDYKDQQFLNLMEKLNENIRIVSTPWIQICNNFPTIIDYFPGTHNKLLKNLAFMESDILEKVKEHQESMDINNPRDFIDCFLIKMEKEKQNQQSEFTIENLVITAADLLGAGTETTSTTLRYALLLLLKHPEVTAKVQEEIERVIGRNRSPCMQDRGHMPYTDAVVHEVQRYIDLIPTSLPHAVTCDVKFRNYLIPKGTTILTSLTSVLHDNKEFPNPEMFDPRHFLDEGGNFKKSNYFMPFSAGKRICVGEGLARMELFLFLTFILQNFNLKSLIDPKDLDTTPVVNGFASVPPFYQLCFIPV
Sequence of Cytochrome P450 2C9 (P11712 whole entry): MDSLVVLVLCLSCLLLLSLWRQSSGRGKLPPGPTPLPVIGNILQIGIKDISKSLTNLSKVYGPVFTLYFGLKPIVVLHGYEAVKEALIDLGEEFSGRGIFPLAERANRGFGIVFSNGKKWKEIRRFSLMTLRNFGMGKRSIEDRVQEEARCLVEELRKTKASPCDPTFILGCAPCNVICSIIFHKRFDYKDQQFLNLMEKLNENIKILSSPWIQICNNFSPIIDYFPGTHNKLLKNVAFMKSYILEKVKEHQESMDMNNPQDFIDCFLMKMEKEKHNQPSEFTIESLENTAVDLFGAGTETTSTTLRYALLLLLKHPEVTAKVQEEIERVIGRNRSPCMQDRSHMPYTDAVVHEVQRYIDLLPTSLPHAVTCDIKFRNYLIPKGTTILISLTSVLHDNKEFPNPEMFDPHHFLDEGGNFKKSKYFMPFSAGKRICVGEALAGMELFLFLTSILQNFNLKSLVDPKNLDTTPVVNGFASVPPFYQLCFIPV
Sequence of Cytochrome P450 2D6 (P10635 whole entry): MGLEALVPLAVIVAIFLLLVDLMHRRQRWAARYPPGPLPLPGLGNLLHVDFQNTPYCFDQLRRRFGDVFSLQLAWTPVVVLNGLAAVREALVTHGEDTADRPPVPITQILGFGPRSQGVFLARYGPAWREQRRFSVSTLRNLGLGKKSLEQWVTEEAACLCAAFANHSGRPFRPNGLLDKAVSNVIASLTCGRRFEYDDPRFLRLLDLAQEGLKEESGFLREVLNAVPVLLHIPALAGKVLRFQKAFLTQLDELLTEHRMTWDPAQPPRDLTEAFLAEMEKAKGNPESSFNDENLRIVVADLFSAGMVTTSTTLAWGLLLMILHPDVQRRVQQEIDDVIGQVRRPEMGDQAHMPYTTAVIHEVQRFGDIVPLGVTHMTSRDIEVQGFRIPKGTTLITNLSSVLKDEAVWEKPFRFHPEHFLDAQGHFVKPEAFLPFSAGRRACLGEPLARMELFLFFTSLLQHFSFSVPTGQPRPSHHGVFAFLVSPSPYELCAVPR

pIC50 (HepG2): < 4.00
pIC50 (MDA-MB-231): 4.92
pIC50 (HeLa): 4.90
pIC50 (HCT-116): 6.11
pIC50 (MCF7 [1]): 5.95
pIC50 [2]: 7.70
Compound: O=C(Nc1ccc(-c2nc(N3CCOCC3)nc(N3C4CCC3CNC4)n2)cc1)Nc1ccc2c(c1)COC2=O
pIC50 (CNE-2): 5.64

Compound: CN(C)C1CCN(C(=O)c2ccc(NC(=O)Nc3ccc(-c4nc(N5CCOCC5)nc(N5CCOCC5)n4)cc3)cc2)CC1 [GEDATOLISIB]
T/C (MCF7 [3]): 46.7%
Activity (MCF7 [4]): 591 mm3
AUC(0-t) at 12 h (in vivo [5]): 5280 ng·h/mL
Cmax at 12 h (in vivo [6]): 44000 ng/mL
Activity (MCF7 [7]): 1.95%
half-life at 12 h (in vivo [8]): 78 min
half-life at 12 h (in vivo [9]): 444 min
AUC(0-inf) at 12 h (in vivo [10]): 5640 ng·h/mL
Activity (MCF7 [11]): 11.9%
Activity (MCF7 [12]): 7.35%
viability at 10 µM (MCF7 [13]): 85.5%
viability at 5 µM (MCF7 [14]): 89%
MTD at […] (in vivo [15]): 20 mg/kg
Activity (MCF7 [16]): 1.77%
Cmax at 12 h (in vivo [17]): 10700 ng/mL
AUC(0-t) at 12 h (in vivo [18]): 31500 ng·h/mL
Activity (MCF7 [19]): 0.64%
Activity (MCF7 [20]): 0.82%
inhibition in vivo at 20 mg/kg (MCF7 [21]): 53.3%
AUC(0-inf) at 12 h (in vivo [22]): 32100 ng·h/mL
Activity (MCF7 [23]): 1.59%
T/C (MCF7 [24]): 44.1%
viability at 2.5 µM (MCF7 [25]): 90.4%
Activity (MCF7 [26]): 8.41%
Activity (MCF7 [27]): 559 mm3
MTD at […] (in vivo [28]): 30 mg/kg
inhibition in vivo at 20 mg/kg (MCF7 [29]): 55.9%
Activity (MCF7 [30]): 0.68%

pIC50 (HepG2): 5.25
pIC50 (MDA-MB-231): 5.46
pIC50 (HeLa): 5.22
pIC50 (HCT-116): 5.30
pIC50 (MCF7 [1]): 5.76
pIC50 [2]: 8.40
Compound: C[C@H]1COCCN1c1nc(-c2ccc(NC(=O)Nc3ccc4c(c3)COC4=O)cc2)nc(N2C3CCC2COC3)n1
pIC50 (CNE-2): 5.97

pIC50 [2]: 8.34
Compound: O=C(Nc1ccc(-c2nc(N3CCOCC3)nc(N3CC4CCC(C3)O4)n2)cc1)Nc1ccc2c(c1)COC2=O

pIC50 [31]: 6.64
pIC50 [32]: 6.63
pIC50 [33]: 6.80
Compound: O=C(Nc1ccc(-c2nc(N3CCOCC3)nc(N3CCO[C@@H](CO)C3)n2)cc1)Nc1ccc2c(c1)COC2=O

pIC50 [31]: < 5.00
pIC50 (Cytochrome P450 2C19): < 5.00
pIC50 [32]: < 5.00
pIC50 (Cytochrome P450 1A2): < 5.00
pIC50 (Cytochrome P450 2D6): < 5.00
pIC50 [33]: < 5.00
pIC50 (Cytochrome P450 2C9): < 5.00
pIC50 (Cytochrome P450 3A4): < 5.00
pIC50 [2]: 8.92
Compound: O=C(Nc1ccc(-c2nc(N3C4CCC3COC4)nc(N3C4CCC3COC4)n2)cc1)Nc1ccc2c(c1)COC2=O
pIC50 [34]: < 4.52

pIC50 [31]: 7.59
pIC50 [32]: 7.01
pIC50 [33]: 6.79
Compound: O=C(Nc1ccc(-c2nc(N3CCOCC3)nc(N3CCOCC3)n2)cc1)Nc1ccc2c(c1)CNC2=O
